Assay results as given in patent US8952024B2, “Herbicidal pyrimidone derivatives” (E I du Pont de Nemours and Company, priority 2009, dated 2015).

What was measured:
Type in all cases: in vivo
[1] = tested on: morningglory (Ipomoea spp.); assay: Test A pre-/postemergence plant response
Excerpt: (§1) Seeds of barnyardgrass (Echinochloa crus-galli), large crabgrass (Digitaria sanguinalis), giant foxtail (Setaria faberii), morningglory (Ipomoea spp.), pigweed (Amaranthus retroflexus), velvetleaf (Abutilon theophrasti), wheat (Triticum aestivum) and corn (Zea mays) were planted into a blend of loam soil and sand and treated preemergence with a directed soil spray using test chemicals formulated in a non-phytotoxic solvent mixture which included a surfactant. At the same time these species were also treated with postemergence applications of test compounds formulated in the same manner.
(§2) Plants ranged in height from two to ten cm and were in the one- to two-leaf stage for the postemergence treatment. Treated plants and untreated controls were maintained in a greenhouse for approximately ten days, after which time all treated plants were compared to untreated controls and visually evaluated for injury. Plant response ratings, summarized in Table A, are based on a 0 to 100 scale where 0 is no effect and 100 is complete control. A dash (-) response means no test result.

[2] = tested on: pigweed (Amaranthus retroflexus); assay: Test A pre-/postemergence plant response
Excerpt: as §1, §2

[3] = tested on: barnyardgrass (Echinochloa crus-galli); assay: Test A pre-/postemergence plant response
Excerpt: as §1, §2

[4] = tested on: giant foxtail (Setaria faberii); assay: Test A pre-/postemergence plant response
Excerpt: as §1, §2

[5] = tested on: large crabgrass (Digitaria sanguinalis); assay: Test A pre-/postemergence plant response
Excerpt: as §1, §2

corn (Zea mays) = assay: Test A pre-/postemergence plant response
Excerpt: as §1, §2

[6] = tested on: velvetleaf (Abutilon theophrasti); assay: Test A pre-/postemergence plant response
Excerpt: as §1, §2

[7] = tested on: wheat (Triticum aestivum); assay: Test A pre-/postemergence plant response
Excerpt: as §1, §2

rice (Oryza sativa) = assay: Test B flooded paddy test; conditions: for Plant response rating, Flood, Rice: 250 g ai/ha, flooded paddy test, visual rating on 0 to 100 scale (0 no effect, 100 complete control) after 13 to 15 days; for Plant response rating, Rice: Flood (flooded paddy test), 13 to 15 days
Excerpt: (§3) Plant species in the flooded paddy test consisted of rice (Oryza sativa), umbrella sedge (Cyperus difformis), ducksalad (Heteranthera limosa) and barnyardgrass (Echinochloa crus-galli) grown to the 2-leaf stage for testing. At the time of treatment, test pots were flooded with water to 3 cm above the soil surface, treated by application of test compounds directly to the paddy water, and then maintained at that water depth for the duration of the test.
(§4) Treated plants and controls were maintained in a greenhouse for 13 to 15 days, after which time all treated plants were visually evaluated and compared to controls. Plant response ratings, summarized in Table B, are based on a scale of 0 to 100 where 0 is no effect and 100 is complete control. A dash (-) response means no test result.

[8] = tested on: barnyardgrass (Echinochloa crus-galli); assay: Test B flooded paddy test; conditions: for Plant response rating, Flood, Barnyardgrass: 250 g ai/ha, flooded paddy test, visual rating on 0 to 100 scale (0 no effect, 100 complete control) after 13 to 15 days; for Plant response rating, Barnyardgrass: Flood (flooded paddy test), 13 to 15 days
Excerpt: as §3, §4

[9] = tested on: ducksalad (Heteranthera limosa); assay: Test B flooded paddy test; conditions: for Plant response rating, Flood, Ducksalad: 250 g ai/ha, flooded paddy test, visual rating on 0 to 100 scale (0 no effect, 100 complete control) after 13 to 15 days; for Plant response rating, Ducksalad: Flood (flooded paddy test), 13 to 15 days
Excerpt: as §3, §4

[10] = tested on: umbrella sedge (Cyperus difformis); assay: Test B flooded paddy test; conditions: for Plant response rating, Flood, Sedge, Umbrella: 250 g ai/ha, flooded paddy test, visual rating on 0 to 100 scale (0 no effect, 100 complete control) after 13 to 15 days; for Plant response rating, Sedge, Umbrella: Flood (flooded paddy test), 13 to 15 days
Excerpt: as §3, §4

[11] = Postemergence, 125 g ai/ha, visual injury, 0 to 100 scale (0 no effect, 100 complete control), approx. ten days
[12] = Postemergence, 500 g ai/ha, 0 to 100 scale, 0 = no effect, 100 = complete control, approx. ten days
[13] = Preemergence, 125 g ai/ha, 0 to 100 scale, 0 = no effect, 100 = complete control
[14] = Preemergence, 500 g ai/ha, visual injury, 0 to 100 scale (0 no effect, 100 complete control), approx. ten days
[15] = 31 g ai/ha, scale of 0 to 100 where 0 is no effect and 100 is complete control
[16] = 62 g ai/ha, scale 0 to 100, 0 is no effect, 100 is complete control
[17] = 125 g ai/ha, scale 0 to 100, 0 is no effect, 100 is complete control
[18] = Postemergence, 125 g ai/ha, 0 to 100 scale where 0 is no effect and 100 is complete control
[19] = Postemergence, 500 g ai/ha, visual injury, 0 to 100 scale (0 no effect, 100 complete control), approx. ten days
[20] = Preemergence, 500 g ai/ha, 0 to 100 scale, 0 = no effect, 100 = complete control
[21] = 62 g ai/ha, scale of 0 to 100 where 0 is no effect and 100 is complete control
[22] = Flood, 31 g ai/ha, scale 0 to 100 (0 no effect, 100 complete control)

C=CCn1c(-c2ccccc2)ncc(C(=O)C2=C(O)CCCC2=O)c1=O [Compound 23]
45: Plant response rating, Flood, Ducksalad [9] | Plant response rating, Ducksalad [9, 17] | Plant response rating, Flood, Sedge, Umbrella [10]
100: Plant response rating, Morningglory [1, 12] | Plant response rating, Pigweed [2, 12] | Velvetleaf plant response rating [6, 11] | Plant response rating, Velvetleaf [6, 12] | Plant response rating, Velvetleaf [6, 14]
40: Plant response rating, Velvetleaf [6, 13] | Plant response rating, Sedge, Umbrella [10, 17]
35: Plant response rating, Ducksalad [9, 16]
20: Plant response rating, Foxtail, Giant [4, 14] | Plant response rating, Ducksalad [9, 15] | Plant response rating, Sedge, Umbrella [10, 15]
70: Plant response rating, Morningglory [1, 14] | Plant response rating, Pigweed [2, 14] | Plant response rating, Barnyardgrass [3, 14]
10: Barnyardgrass plant response rating [3, 11] | Foxtail, Giant plant response rating [4, 11] | Plant response rating, Crabgrass, Large [5, 13]
60: Plant response rating, Barnyardgrass [3, 12] | Plant response rating, Crabgrass, Large [5, 12]
15: Plant response rating, Flood, Rice (rice (Oryza sativa))
0: Plant response rating, Morningglory [1, 13] | Plant response rating, Barnyardgrass [3, 13] | Plant response rating, Foxtail, Giant [4, 13] | Corn plant response rating (corn (Zea mays); [11]) | Plant response rating, Corn (corn (Zea mays); [12]) | Plant response rating, Corn (corn (Zea mays); [13]) | Plant response rating, Corn (corn (Zea mays); [14]) | Wheat plant response rating [7, 11] | Plant response rating, Wheat [7, 12] | Plant response rating, Wheat [7, 13] | Plant response rating, Wheat [7, 14] | Plant response rating, Rice (rice (Oryza sativa); [15]) | Plant response rating, Rice (rice (Oryza sativa); [16]) | Plant response rating, Rice (rice (Oryza sativa); [17]) | Plant response rating, Flood, Barnyardgrass [8] | Plant response rating, Barnyardgrass [8, 15] | Plant response rating, Barnyardgrass [8, 16] | Plant response rating, Barnyardgrass [8, 17]
90: Plant response rating, Crabgrass, Large [5, 14]
50: Morningglory plant response rating [1, 11] | Plant response rating, Pigweed [2, 13] | Plant response rating, Foxtail, Giant [4, 12]
30: Crabgrass, Large plant response rating [5, 11] | Plant response rating, Sedge, Umbrella [10, 16]
80: Pigweed plant response rating [2, 11]

CSc1ncc(C(=O)C2=C(O)CCCC2=O)c(=O)n1-c1ccccc1 [Compound 30]
70: Pigweed plant response rating [2, 11] | Plant response rating, Velvetleaf [6, 14]
40: Plant response rating, Barnyardgrass [3, 14] | Plant response rating, Foxtail, Giant [4, 12]
30: Morningglory plant response rating [1, 11] | Plant response rating, Barnyardgrass [3, 12] | Crabgrass, Large plant response rating [5, 11]
0: Plant response rating, Morningglory [1, 13] | Plant response rating, Pigweed [2, 13] | Plant response rating, Barnyardgrass [3, 13] | Plant response rating, Foxtail, Giant [4, 13] | Plant response rating, Crabgrass, Large [5, 13] | Corn plant response rating (corn (Zea mays); [11]) | Plant response rating, Corn (corn (Zea mays); [12]) | Plant response rating, Corn (corn (Zea mays); [13]) | Plant response rating, Corn (corn (Zea mays); [14]) | Wheat plant response rating [7, 11] | Plant response rating, Wheat [7, 12] | Plant response rating, Wheat [7, 13] | Plant response rating, Wheat [7, 14] | Plant response rating, Flood, Rice (rice (Oryza sativa)) | Plant response rating, Rice (rice (Oryza sativa); [16]) | Plant response rating, Flood, Barnyardgrass [8] | Plant response rating, Barnyardgrass [8, 16]
50: Plant response rating, Morningglory [1, 12] | Plant response rating, Flood, Ducksalad [9] | Plant response rating, Flood, Sedge, Umbrella [10]
60: Plant response rating, Morningglory [1, 14] | Plant response rating, Crabgrass, Large [5, 12] | Plant response rating, Crabgrass, Large [5, 14]
80: Plant response rating, Pigweed [2, 12] | Plant response rating, Pigweed [2, 14]
20: Plant response rating, Velvetleaf [6, 13] | Plant response rating, Ducksalad [9, 16] | Plant response rating, Sedge, Umbrella [10, 16]
10: Barnyardgrass plant response rating [3, 11] | Foxtail, Giant plant response rating [4, 11] | Plant response rating, Foxtail, Giant [4, 14]
100: Velvetleaf plant response rating [6, 11]

COc1ccc(-n2c(-c3cccc(F)c3)ncc(C(=O)C3=C(O)CCCC3=O)c2=O)cc1 [Compound 203]
80: Plant response rating, Barnyardgrass [3, 18] | Foxtail, Giant plant response rating [4, 19] | Plant response rating, Velvetleaf [6, 20]
95: Plant response rating, Flood, Ducksalad [9] | Plant response rating, Ducksalad [9, 17]
90: Plant response rating, Foxtail, Giant [4, 20] | Plant response rating, Velvetleaf [6, 18]
75: Plant response rating, Ducksalad [9, 21] | Plant response rating, Sedge, Umbrella [10, 17]
85: Plant response rating, Flood, Sedge, Umbrella [10]
100: Plant response rating, Morningglory [1, 18] | Morningglory plant response rating [1, 19] | Plant response rating, Pigweed [2, 18] | Pigweed plant response rating [2, 19] | Plant response rating, Pigweed [2, 13] | Plant response rating, Pigweed [2, 20] | Barnyardgrass plant response rating [3, 19] | Velvetleaf plant response rating [6, 19]
70: Plant response rating, Morningglory [1, 20] | Plant response rating, Barnyardgrass [3, 20] | Crabgrass, Large plant response rating [5, 19] | Plant response rating, Crabgrass, Large [5, 20]
20: Plant response rating, Crabgrass, Large [5, 13] | Plant response rating, Corn (corn (Zea mays); [20]) | Plant response rating, Flood, Barnyardgrass [8]
50: Plant response rating, Velvetleaf [6, 13]
65: Plant response rating, Sedge, Umbrella [10, 21]
0: Plant response rating, Morningglory [1, 13] | Plant response rating, Corn (corn (Zea mays); [18]) | Plant response rating, Corn (corn (Zea mays); [13]) | Plant response rating, Wheat [7, 18] | Plant response rating, Wheat [7, 13] | Plant response rating, Flood, Rice (rice (Oryza sativa)) | Plant response rating, Rice (rice (Oryza sativa); [21]) | Plant response rating, Rice (rice (Oryza sativa); [17]) | Rice plant response rating (rice (Oryza sativa); [22]) | Plant response rating, Barnyardgrass [8, 21] | Plant response rating, Barnyardgrass [8, 17] | Barnyardgrass plant response rating [8, 22] | Sedge, Umbrella plant response rating [10, 22]
40: Ducksalad plant response rating [9, 22]
30: Plant response rating, Barnyardgrass [3, 13] | Plant response rating, Foxtail, Giant [4, 18] | Plant response rating, Foxtail, Giant [4, 13] | Plant response rating, Crabgrass, Large [5, 18] | Corn plant response rating (corn (Zea mays); [19]) | Wheat plant response rating [7, 19] | Plant response rating, Wheat [7, 20]
